Source: PMC8819633 (Journal of medicinal chemistry, 2021)

Tests used:
[1] = test system: PC3 cells; test: Cell proliferation assay; assay type: cell-based, human; conditions: 5 days
[2] = test system: P-PRAS40 (T246) and P-S6 (S240/244); test: Western blot of downstream signaling inhibition in BT474 cells; assay type: cell-based, human
[3] = test system: MDA-MB-468 cells; test: Apoptosis assay; assay type: cell-based, human; conditions: MDA-MB-468 cells (Figure S5)
[4] = test system: T-AKT and P-AKT; test: Competition; assay type: cell-based, human; conditions: BT474, then degrader 22 h
[5] = male Swiss albino mice, single IP injection, 50 mg/kg
[6] = test system: MDA-MB-468 cells; test: Cell proliferation assay; assay type: cell-based, human; conditions: 5 days
[7] = test system: total AKT (T-AKT) and phosphorylated AKT (P-AKT (S473)); test: Western blot of AKT degradation in BT474 cells; assay type: cell-based, human
[8] = test system: T-AKT and P-AKT (S473); test: Western blot of AKT degradation in PC3 cells; assay type: cell-based, human
[9] = assay type: in vivo; conditions: mice, single IP injection, 50 mg/kg

Compound: C[C@@H]1C[C@@H](O)c2ncnc(N3CCN(C(=O)[C@H](CNCCC(=O)NCCCCCCCCNc4cccc5c4C(=O)N(C4CCC(=O)NC4=O)C5=O)c4ccc(Cl)cc4)CC3)c21 (stereo partly drawn) [Compound 25]
- growth inhibition [1]: comparable potencies to GDC-0068 and INY-03–041
- kinetics of downstream signaling inhibition ([2]; 1 μM, vs GDC-0068): not as rapid as that induced by GDC-0068
- inhibition of downstream signaling, P-PRAS40 and P-S6 ([2]; 24 h, compared with GDC-0068 (1 μM)): most effective in inhibiting the downstream signaling
- apoptosis induced [3]: ≤ 3%
- effect of GDC-0068 pretreatment on degrader-induced AKT degradation ([4]; 2 h pretreatment with GDC-0068 (1 μM)): rescued 25-induced AKT degradation
- effect of MG132 pretreatment on degrader-induced AKT degradation ([4]; 2 h pretreatment with MG132 (10 μM)): rescued 25-induced AKT degradation
- effect of MLN4924 pretreatment on degrader-induced AKT degradation ([4]; 2 h pretreatment with MLN4924 (1 μM)): rescued 25-induced AKT degradation
- time of Cmax [5]: 2 h
- growth inhibition [6]: comparable potencies to GDC-0068 and INY-03–041
- duration of T-AKT and P-AKT degradation ([7]; 1 μM): at least 24 h
- T-AKT and P-AKT degradation ([7]; 1 μM, 24 h): > 95%
- time course of T-AKT and P-AKT degradation ([7]; 1 μM, indicated times): Significant P-AKT and T-AKT degradation occurred as early as 4 and 8 h, respectively
- T-AKT and P-AKT protein degradation (western blot) ([7]; 24 h, 1, 5 and 10 μM (12-13: 1, 3 and 10 μM)): highly effective in reducing T-AKT and P-AKT protein levels
- hook effect in AKT degradation ([7]; 24 h, higher concentrations (up to 10 μM)): without a ″hook effect″
- extent of T-AKT degradation in concentration-response ([7]; 24 h, indicated concentrations): complete degradation of T-AKT at 300 nM
- hook effect in concentration-response ([7]; concentrations up to 10 μM): No ″hook effect″ was observed
- AKT degradation, concentration-response [8]: effectively induced AKT degradation in a concentration-dependent manner
- tolerability [9]: well tolerated
